Starred links: 1 amine or outer side, 2 acyl side, 3 side chain; linkers in the order of their positions; H or OH if unused. Positions of bridges follow the written chain, without caps; N, C: chain ends. Non-standard residues stand in square brackets, D forms with d. Residues, ends and D or L forms follow the SMILES beside them. Trp(2-yl) = O=C([C@H](Cc1c([*:3])[nH]c2ccccc12)N[*:1])[*:2]; Leu(4R-OH,5-OH) = C[C@](O)(CO)C[C@H](N)C(=O)O; cisHyp = O=C(O)[C@@H]1C[C@H](O)CN1
Legend:
HeLa cells = settings: Kulms et al, 2002; cited from earlier work
[1] = test system: Tg197 synovial fibroblasts; test: Migration assay of Tg197 synovial fibroblasts after drug treatment; assay type: cell-based, mouse; settings: drug treatment 2 h at 37° C., compare to Wt, FIG. 8
Method: (§1) FIG. 8. Adhesion/Migration assays showing the effect of Lat-A on Tg197 actin-cytoskeleton properties.
(§2) Disruption of actin cytoskeleton was induced with 4 μg/ml of Latrunculin A (Sigma) for 2 h at 37° C. as previously described (Spector et al, 1989). As control of TNFα involvement in actin-cytoskeleton organisation 1 μg/ml of anti-TNF (Infliximab) was added on the cells for the same period of time.

[2] = test system: Tg197 synovial fibroblasts; test: Apoptosis assay using staurosporine as inducer of cell death; assay type: cell-based, mouse; settings: FIG. 10
Method: Confluent mouse synovial fibroblasts were washed twice with phosphate-buffered saline (PBS) and placed in DMEM without serum for 24 h. The following day 1.5×10^4 cells were plated into each well of a 96-well flat-bottom plate (Costar, Corning Inc.) in 100 μl of media plus serum. After 24 h, cells were treated with 12.5-100 ng/ml TNFα plus 0.5-3 μg/ml cyclohexamide (CHX), 30-300 μM Etoposide and 0.01-1 μM Staurosporine, for 24 h at 37° C. overnight. Cell survival was determined using the crystal violet assay. The absorbance at 570 nm was determined on a microplate reader (SPECTRAmax PLUS^384, Molecular Devices, Sunnyvale, Calif., USA), as previously described (Aidinis et al, 2003). Results are expressed as the means±S.E. of one representative experiment performed in triplicate. Statistical analysis was performed using Student's t test, with a level of significance set at p<0.05.
as §2

[3] = test system: Tg197 synovial fibroblasts; test: Adhesion assay of Tg197 synovial fibroblasts after drug treatment; assay type: cell-based, mouse; settings: drug treatment 2 h at 37° C., FIG. 8
Method: as §1
Adhesion assays were performed on Cytometrix adhesion strips (Chemicon) coated with human fibronectin, vitronectin, laminin and collagen I, according to the manufacturer instructions.
as §2

[4] = test system: Tg197 synovial fibroblasts; test: Proliferation assay of Tg197 synovial fibroblasts after drug treatment; assay type: cell-based, mouse; settings: FIG. 9
Method: FIG. 7. […] Mean averages of triplicates with mean background (adhesion to BSA) values subtracted. Representative experiment out of three (t-test; P<0.05). (C) DNA synthesis/proliferation assay in the presence or absence of 10% FBS, 48 h after treatment. Values represent [3H]Thymidine incorporation (×10^3). Mean average of triplicates (t test; P<0.05). (D) Assay of wound-healing treated with Mytomycin C for 2 h. Pictures were taken at Oh and 24 h after the wound (Oh not shown). (E) TNF cytotoxicity assay with cyclohexamide. After 24 h survival was determined using the crystal violet assay. (F) Apoptosis assay using 30-300 μM etoposide. (G) Apoptosis assay using 0.01-1 μM staurosporine.
as §2

Molecule	apoptosis in HeLa cells (HeLa cells)	migration of TgSF's [1]	resistance to apoptosis [2]	adhesion of TgSF's [3]	proliferation levels of TgSFs [4]
C=C1[C@@H](C)[C@H]2[C@H](Cc3ccccc3)NC(=O)[C@]23[C@H](OC(C)=O)/C=C/[C@@](C)(O)C(=O)[C@@H](C)C/C=C/[C@H]3[C@@H]1O [Cytochalasin D]	enhances apoptosis				
C/C1=C/C(=O)O[C@@H]2C[C@@H](CC[C@H](C)/C=C\C=C\CC1)O[C@@](O)([C@@H]1CSC(=O)N1)C2 [Lat-A, Latrunculin A]		migration seems to be increased	decreased resistance to apoptosis at the levels of the Wt SFs	decreased adhesion	decline lower even than the levels of WtSFs
C[C@@H]1NC(=O)[C@H](C[C@@](C)(O)CO)NC(=O)[C@@H]2Cc3c([nH]c4ccccc34)SC[C@H](NC(=O)[C@@H]([C@H](C)O)NC1=O)C(=O)N1C[C@@H](O)C[C@H]1C(=O)N[C@@H](C)C(=O)N2 [phalloidin] (cyclo(A[dT]C[cisHyp]A[Trp(2-yl)][Leu(4R-OH,5-OH)]); thioether 3-6)	does not affect apoptosis				
TNFα					do not have an effect
anti-TNF: anti-TNF (Infliximab), control of TNFα involvement in actin-cytoskeleton organisation		do not show altered adhesion/migration properties		do not show altered adhesion/migration properties	

Source: patent US20080311185A1, “Deregulated Genes and/or Processes in Inflammatory Arthritis” (priority 2005, published 2008)
